Experimental data published in publication PMC10747602, “Dose Response, Dosimetric, and Metabolic Evaluations of Replacement PFAS Perfluoro-(2,5,8-trimethyl-3,6,9-trioxadodecanoic) Acid (HFPO-TeA)” (Toxics, 2023).
Like-named read-outs stand apart in the source and are kept apart here.

Legend:
[1] = system: rats; parameters: method as in PMID 28962433, PMID 30920876; details: exposures up to 500 mg/kg/day; cited from earlier work
[2] = Non-targeted analysis of plasma and liver (in vivo); parameters: species or system Sprague Dawley rats; details: for relative peak area abundance (RA) vs. HFPO-TeA, Plasma: 5 days, mean ± SD n=8
Method: Extracts of plasma (50 µL), liver (10 mg), and hepatocyte metabolism assay media (10 µL) were analyzed by high-resolution, accurate mass non-targeted analysis (NTA) for the detection and identification of potential biotransformation products of HFPO-TeA. A mixture of ^13C-labeled PFAS compounds (MPAC-C-ES, Wellington Laboratories, Guelph, ON, Canada) were used as tracers. Samples were extracted, as detailed above (in vivo) and below (in vitro), and then analyzed in triplicate in a randomized order on a Sciex X500R QTOF. Additional information on NTA instrumental analysis and data processing parameters is presented in Supplementary Text S8 and Tables S8 and S10 [52]. […] A screening list of potential biotransformation products was generated using the U.S. EPA web application CTS: Chemical Transformation Simulator 1.0 and Biotransformer 3.0 [53, 54]. In some instances, molecular structure predictions were performed using MetFrag. […]
(§1) tube, and then further crashed with 200 µL ACN. This was repeated twice more to generate a final combined supernatant volume of 600 µL. Supernatants were stored at -20 °C prior to analysis.
Samples were quantitated against matrix-matched calibration curves containing a minimum of 5 points spanning the range 0.99 – 141 ng/mg liver (wet weight, ww). For the calibration standards, commercial rat liver (BioIVT) was spiked with HFPO-TeA and PFHxDA, homogenized, and extracted using the above procedure. […]
Support ing Text S8: Non- Target ed Analysis Met hod and Data Processing Each sample batch included a mobile phase blank and solvent blank to monitor for the presence of laboratory contamination, and a system suitability sample consisting of the set of isotopically labeled PFAS tracer compounds spiked into extraction solvent to monitor instrument performance prior to sample analysis. […] A high-resolution, exact mass spectral library created in house from IDA scans of commercially available PFAS standards analyzed on the same mass spectrometer as the samples and using the same instrument parameters was used for library searches. […]

[3] = Liver-to-plasma partitioning (Kp); type: in vivo, Sprague Dawley rats; details: Sprague Dawley, rat, oral, 5 days
Method: Liver samples were analyzed using the same analytical assessment procedure as the plasma dosimetry samples. Matrix blanks were analyzed with each sample set. HFPO-TeA was not detected in the blanks above the limit of quantitation (LOQ) of 1.58 µM. Statistical analysis is described in Supplementary Text S3, normalization calculations are described in Supplementary Text S5 [47], and the liver-to-plasma partitioning calculation is outlined in Supplementary Text S7 [32, 50, 51]. […]
as §1
Samples were quantitated against matrix-matched calibration curves containing a minimum of 5 points spanning the range 0.99 – 141 ng/mg liver (wet weight, ww). For the calibration standards, commercial rat liver (BioIVT) was spiked with HFPO-TeA and PFHxDA, homogenized, and extracted using the above procedure.
Support ing Text S7: Plasma-to-Liver Partitioning Calculations
Concentrations of HFPO-TeA in liver and plasma were used to calculate experimental Kp values for both sexes across all dose levels using Equation A [3-5].

In the case of `O=C(O)C(F)(OC(F)(F)C(F)(F)C(F)(F)F)C(F)(F)F` (centres unmarked) [HFPO-DA, perfluoro-2-methyl-3-oxahexanoic acid], the premature mortality [1] is given as “no reported premature mortality”.
In the case of `O=C(O)C(F)(OC(F)(F)C(F)(OC(F)(F)C(F)(F)C(F)(F)F)C(F)(F)F)C(F)(F)F` (centres unmarked) [HFPO-TA, perfluoro-(2,5-dimethyl-3,6-dioxanonanoic) acid], the “relative peak area abundance (RA) vs. HFPO-TeA, Plasma” value ([2]; HFPO-TeA dose 6.3 mg/kg/day) is reported as 0.05 ± 0.04 and the “relative peak area abundance (RA) vs. HFPO-TeA, Plasma” value ([2]; HFPO-TeA dose 17 mg/kg/day) is reported as 1.83 ± 0.85.
In the case of `O=C(O)C(F)(OC(F)(F)C(F)(OC(F)(F)C(F)(OC(F)(F)C(F)(F)C(F)(F)F)C(F)(F)F)C(F)(F)F)C(F)(F)F` (centres unmarked) [HFPO-TeA, perfluoro-(2,5,8-trimethyl-3,6,9-trioxadodecanoic) acid], the “presence of predicted conjugates (non-targeted analysis)” value ([2]; plasma or liver) is reported as “No ions that suggested the presence of the three predicted HFPO-TeA conjugates were observed”, the Kp at 120 h ([3]; female, 0.3 mg/kg/day, F, mean ± SD n=4, read-out: Liver Kp (liver-to-plasma ratio)) is reported as 7.81 ± 4.68 and the Kp at 120 h ([3]; female, 0.9 mg/kg/day, F, mean ± SD n=4, read-out: Liver Kp (liver-to-plasma ratio)) is reported as 4.04 ± 1.37. The Kp at 120 h ([3]; female, 2.3 mg/kg/day, F, mean ± SD n=4, read-out: Liver Kp (liver-to-plasma ratio)) was 1.9 ± 1.47, the Kp at 120 h ([3]; female, 6.3 mg/kg/day, F, mean ± SD n=4, read-out: Liver Kp (liver-to-plasma ratio)) was 1.65 ± 0.46 and the Kp at 120 h ([3]; female, 17 mg/kg/day, F, mean ± SD n=4, read-out: Liver Kp (liver-to-plasma ratio)) was 0.903 ± 0.145. It also gave a Kp at 120 h ([3]; male, 0.3 mg/kg/day, M, mean ± SD n=4, read-out: Liver Kp (liver-to-plasma ratio)) of 7.28 ± 3.71, a Kp at 120 h ([3]; male, 0.9 mg/kg/day, M, mean ± SD n=4, read-out: Liver Kp (liver-to-plasma ratio)) of 3.38 ± 1.24 and a Kp at 120 h ([3]; male, 2.3 mg/kg/day, M, mean ± SD n=4, read-out: Liver Kp (liver-to-plasma ratio)) of 1.54 ± 0.91. For the same molecule, the Kp at 120 h ([3]; male, 6.3 mg/kg/day, M, mean ± SD n=4, read-out: Liver Kp (liver-to-plasma ratio)) was 3.41 ± 0.6 and the Kp at 120 h ([3]; male, 17 mg/kg/day, M, mean ± SD n=4, likely influenced by high toxicity and stress, read-out: Liver Kp (liver-to-plasma ratio)) was 1.32 ± 0.55.
